# Measured values as given in ChEMBL document CHEMBL5252509, “In depth analysis of kinase cross screening data to identify chemical starting points for inhibition of the Nek family of kinases” (Medchemcomm, 2018).
# What was measured:
# [1] = molecular target: Serine/threonine-protein kinase Nek4 (Homo sapiens) (UniProt P51957); assay: Inhibition of NEK4 (unknown origin) at 100 nM relative to control
# [2] = molecular target: Mitogen-activated protein kinase kinase kinase 8 (Homo sapiens, UniProt P41279); assay: Inhibition of MAP3K8 (unknown origin)
# [3] = molecular target: T1, Serine/threonine-protein kinase Nek3 (Homo sapiens) (UniProt P51956); assay: Inhibition of NEK3 (unknown origin) at 10 uM relative to control
# T1 sequence (whole entry): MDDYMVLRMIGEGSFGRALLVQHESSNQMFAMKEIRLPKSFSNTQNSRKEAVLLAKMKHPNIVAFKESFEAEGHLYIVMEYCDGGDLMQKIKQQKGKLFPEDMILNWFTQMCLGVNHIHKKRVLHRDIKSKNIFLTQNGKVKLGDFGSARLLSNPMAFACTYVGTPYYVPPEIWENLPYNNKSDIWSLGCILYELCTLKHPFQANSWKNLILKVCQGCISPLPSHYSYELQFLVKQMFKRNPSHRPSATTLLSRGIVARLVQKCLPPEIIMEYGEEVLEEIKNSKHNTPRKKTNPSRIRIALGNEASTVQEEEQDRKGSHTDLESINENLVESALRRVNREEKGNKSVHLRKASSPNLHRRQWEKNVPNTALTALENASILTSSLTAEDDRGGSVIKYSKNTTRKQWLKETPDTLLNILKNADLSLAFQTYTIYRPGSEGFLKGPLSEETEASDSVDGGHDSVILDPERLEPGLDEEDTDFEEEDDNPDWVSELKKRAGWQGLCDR
# [4] = molecular target: Serine/threonine-protein kinase Nek2 (Homo sapiens, UniProt P51955); assay: Inhibition of NEK2 (unknown origin) assessed as dissociation constant
# [5] = molecular target: T2, Serine/threonine-protein kinase Nek5 (Homo sapiens) (UniProt Q6P3R8); assay: Inhibition of NEK5 (unknown origin) at 10 uM relative to control
# T2 sequence (whole entry): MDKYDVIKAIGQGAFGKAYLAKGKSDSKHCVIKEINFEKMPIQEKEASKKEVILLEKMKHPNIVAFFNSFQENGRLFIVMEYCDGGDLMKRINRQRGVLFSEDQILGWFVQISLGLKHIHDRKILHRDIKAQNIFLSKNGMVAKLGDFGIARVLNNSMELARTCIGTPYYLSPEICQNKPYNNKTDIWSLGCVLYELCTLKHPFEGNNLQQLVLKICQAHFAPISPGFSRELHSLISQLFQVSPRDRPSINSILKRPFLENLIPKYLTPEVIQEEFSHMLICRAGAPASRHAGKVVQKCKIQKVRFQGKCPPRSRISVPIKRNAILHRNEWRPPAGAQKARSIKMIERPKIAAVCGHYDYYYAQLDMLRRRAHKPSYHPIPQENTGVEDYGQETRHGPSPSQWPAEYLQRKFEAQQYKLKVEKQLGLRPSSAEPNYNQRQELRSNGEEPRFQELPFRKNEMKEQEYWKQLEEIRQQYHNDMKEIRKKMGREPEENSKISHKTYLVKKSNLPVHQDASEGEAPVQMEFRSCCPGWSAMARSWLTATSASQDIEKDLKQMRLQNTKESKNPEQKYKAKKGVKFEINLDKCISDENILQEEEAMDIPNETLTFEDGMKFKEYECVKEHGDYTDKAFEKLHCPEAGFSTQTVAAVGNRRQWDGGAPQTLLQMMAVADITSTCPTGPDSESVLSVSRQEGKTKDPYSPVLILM
# [6] = molecular target: Serine/threonine-protein kinase Nek6 (Homo sapiens) (UniProt Q9HC98); assay: Inhibition of NEK6 (unknown origin) at 10 uM relative to control
# [7] = molecular target: T3, Serine/threonine-protein kinase Nek2 (Homo sapiens) (UniProt P51955); assay: Inhibition of NEK2 (unknown origin) at 10 uM relative to control
# T3 sequence (whole entry): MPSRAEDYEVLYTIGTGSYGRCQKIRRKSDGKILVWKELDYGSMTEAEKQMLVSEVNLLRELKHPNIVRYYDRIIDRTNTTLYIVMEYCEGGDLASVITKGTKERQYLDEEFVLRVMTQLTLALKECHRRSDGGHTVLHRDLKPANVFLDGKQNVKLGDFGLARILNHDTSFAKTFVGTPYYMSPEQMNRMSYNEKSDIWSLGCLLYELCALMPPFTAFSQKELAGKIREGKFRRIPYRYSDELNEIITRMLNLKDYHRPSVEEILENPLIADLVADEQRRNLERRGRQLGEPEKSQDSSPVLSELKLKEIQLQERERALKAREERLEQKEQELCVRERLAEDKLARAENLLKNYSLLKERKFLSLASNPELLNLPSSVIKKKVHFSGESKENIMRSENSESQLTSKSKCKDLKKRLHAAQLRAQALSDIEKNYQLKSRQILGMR
# [8] = molecular target: T4, Serine/threonine-protein kinase Nek9 (Homo sapiens) (UniProt Q8TD19); assay: Inhibition of NEK9 (unknown origin) at 10 uM relative to control
# T4 sequence (whole entry): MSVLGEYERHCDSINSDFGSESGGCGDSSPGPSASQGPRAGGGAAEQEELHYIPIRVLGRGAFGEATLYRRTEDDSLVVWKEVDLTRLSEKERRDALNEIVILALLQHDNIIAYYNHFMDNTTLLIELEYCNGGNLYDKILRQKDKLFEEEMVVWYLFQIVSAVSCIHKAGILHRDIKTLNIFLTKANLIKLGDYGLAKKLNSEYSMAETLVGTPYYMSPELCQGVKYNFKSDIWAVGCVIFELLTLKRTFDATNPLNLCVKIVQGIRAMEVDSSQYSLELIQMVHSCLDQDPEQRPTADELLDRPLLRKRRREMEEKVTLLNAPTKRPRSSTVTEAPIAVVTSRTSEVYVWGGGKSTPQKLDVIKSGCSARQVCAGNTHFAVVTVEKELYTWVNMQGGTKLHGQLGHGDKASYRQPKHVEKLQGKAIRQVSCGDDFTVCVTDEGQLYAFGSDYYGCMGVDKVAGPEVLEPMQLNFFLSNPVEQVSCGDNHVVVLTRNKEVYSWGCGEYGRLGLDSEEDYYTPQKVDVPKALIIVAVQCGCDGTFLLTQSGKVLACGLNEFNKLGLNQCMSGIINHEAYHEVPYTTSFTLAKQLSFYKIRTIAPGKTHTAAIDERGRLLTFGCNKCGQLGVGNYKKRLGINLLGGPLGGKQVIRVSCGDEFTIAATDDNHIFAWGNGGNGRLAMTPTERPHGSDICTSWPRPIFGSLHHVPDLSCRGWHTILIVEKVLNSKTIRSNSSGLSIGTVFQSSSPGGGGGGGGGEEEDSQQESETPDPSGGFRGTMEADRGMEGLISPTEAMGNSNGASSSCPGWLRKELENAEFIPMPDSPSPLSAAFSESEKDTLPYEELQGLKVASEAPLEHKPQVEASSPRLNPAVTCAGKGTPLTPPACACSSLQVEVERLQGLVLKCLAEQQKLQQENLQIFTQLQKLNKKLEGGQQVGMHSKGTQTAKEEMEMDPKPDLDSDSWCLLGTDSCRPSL
# [9] = molecular target: Serine/threonine-protein kinase Nek4 (Homo sapiens) (UniProt P51957); assay: Inhibition of NEK4 (unknown origin) at 10 uM relative to control
# [10] = molecular target: Serine/threonine-protein kinase Nek7 (Homo sapiens) (UniProt Q8TDX7); assay: Inhibition of NEK7 (unknown origin) at 10 uM relative to control
# [11] = molecular target: T3, Serine/threonine-protein kinase Nek2 (Homo sapiens); assay: Inhibition of NEK2 (unknown origin) at 1 uM relative to control
# [12] = molecular target: T4, Serine/threonine-protein kinase Nek9 (Homo sapiens); assay: Inhibition of NEK9 (unknown origin) at 100 nM relative to control
# [13] = molecular target: T3, Serine/threonine-protein kinase Nek2 (Homo sapiens); assay: Inhibition of NEK2 (unknown origin) at 100 nM relative to control
# [14] = molecular target: Serine/threonine-protein kinase Nek6 (Homo sapiens) (UniProt Q9HC98); assay: Inhibition of NEK6 (unknown origin) at 100 nM relative to control
# [15] = molecular target: T4, Serine/threonine-protein kinase Nek9 (Homo sapiens); assay: Inhibition of NEK9 (unknown origin) at 1 uM relative to control
# [16] = molecular target: T5, Serine/threonine-protein kinase Nek1 (Homo sapiens) (UniProt Q96PY6); assay: Inhibition of NEK1 (unknown origin) at 100 nM relative to control
# T5 sequence (whole entry): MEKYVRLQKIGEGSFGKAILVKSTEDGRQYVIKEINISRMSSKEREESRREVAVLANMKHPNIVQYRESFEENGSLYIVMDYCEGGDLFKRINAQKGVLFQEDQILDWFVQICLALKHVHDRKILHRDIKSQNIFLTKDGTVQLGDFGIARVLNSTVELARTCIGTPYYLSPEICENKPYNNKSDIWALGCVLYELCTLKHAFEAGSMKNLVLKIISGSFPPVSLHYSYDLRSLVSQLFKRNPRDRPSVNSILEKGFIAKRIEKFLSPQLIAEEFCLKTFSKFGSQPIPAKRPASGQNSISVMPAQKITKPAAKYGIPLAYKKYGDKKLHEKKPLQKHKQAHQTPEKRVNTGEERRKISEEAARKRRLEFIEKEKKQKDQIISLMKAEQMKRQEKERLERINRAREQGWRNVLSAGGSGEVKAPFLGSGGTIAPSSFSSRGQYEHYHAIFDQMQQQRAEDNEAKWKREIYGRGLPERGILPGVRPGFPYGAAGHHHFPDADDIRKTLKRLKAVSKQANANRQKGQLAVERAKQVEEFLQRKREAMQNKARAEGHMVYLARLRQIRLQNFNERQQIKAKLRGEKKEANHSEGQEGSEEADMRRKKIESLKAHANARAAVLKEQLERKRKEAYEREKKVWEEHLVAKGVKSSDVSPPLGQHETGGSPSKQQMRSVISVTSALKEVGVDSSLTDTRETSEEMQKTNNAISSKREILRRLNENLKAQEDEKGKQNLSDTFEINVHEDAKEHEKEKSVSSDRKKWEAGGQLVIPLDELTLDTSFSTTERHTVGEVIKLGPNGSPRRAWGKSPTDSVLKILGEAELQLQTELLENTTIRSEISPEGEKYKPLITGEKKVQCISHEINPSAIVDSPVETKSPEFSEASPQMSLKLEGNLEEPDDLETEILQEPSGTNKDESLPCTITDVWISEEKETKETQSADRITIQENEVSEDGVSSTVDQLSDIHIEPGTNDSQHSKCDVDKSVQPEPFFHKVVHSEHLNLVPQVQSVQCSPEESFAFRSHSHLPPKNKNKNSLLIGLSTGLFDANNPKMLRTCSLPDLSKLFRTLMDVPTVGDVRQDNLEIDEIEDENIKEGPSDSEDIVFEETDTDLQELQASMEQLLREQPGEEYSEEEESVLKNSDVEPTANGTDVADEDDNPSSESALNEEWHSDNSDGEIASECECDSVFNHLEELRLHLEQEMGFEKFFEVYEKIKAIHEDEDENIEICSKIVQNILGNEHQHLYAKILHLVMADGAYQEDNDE
# [17] = molecular target: Serine/threonine-protein kinase Nek7 (Homo sapiens) (UniProt Q8TDX7); assay: Inhibition of NEK7 (unknown origin) at 100 nM relative to control
# [18] = molecular target: Serine/threonine-protein kinase Nek6 (Homo sapiens) (UniProt Q9HC98); assay: Inhibition of NEK6 (unknown origin) at 1 uM relative to control
# [19] = molecular target: Serine/threonine-protein kinase Nek7 (Homo sapiens) (UniProt Q8TDX7); assay: Inhibition of NEK7 (unknown origin) at 1 uM relative to control
# [20] = molecular target: Serine/threonine-protein kinase Nek1 (Homo sapiens, UniProt Q96PY6); assay: Inhibition of NEK1 (unknown origin) assessed as dissociation constant
# [21] = molecular target: Serine/threonine-protein kinase Nek3 (Homo sapiens, UniProt P51956); assay: Inhibition of NEK3 (unknown origin) assessed as dissociation constant
# [22] = molecular target: T6, Serine/threonine-protein kinase Nek9 (Homo sapiens, UniProt Q8TD19); assay: Inhibition of NEK9 (unknown origin)
# [23] = molecular target: T6, Serine/threonine-protein kinase Nek9; assay: Inhibition of NEK9 (unknown origin) assessed as dissociation constant
# [24] = molecular target: Serine/threonine-protein kinase Nek7 (Homo sapiens) (UniProt Q8TDX7); assay: Inhibition of NEK7 (unknown origin) at 3 uM relative to control
# Chain of Serine/threonine-protein kinase Nek6 (Homo sapiens) (Q9HC98 whole entry): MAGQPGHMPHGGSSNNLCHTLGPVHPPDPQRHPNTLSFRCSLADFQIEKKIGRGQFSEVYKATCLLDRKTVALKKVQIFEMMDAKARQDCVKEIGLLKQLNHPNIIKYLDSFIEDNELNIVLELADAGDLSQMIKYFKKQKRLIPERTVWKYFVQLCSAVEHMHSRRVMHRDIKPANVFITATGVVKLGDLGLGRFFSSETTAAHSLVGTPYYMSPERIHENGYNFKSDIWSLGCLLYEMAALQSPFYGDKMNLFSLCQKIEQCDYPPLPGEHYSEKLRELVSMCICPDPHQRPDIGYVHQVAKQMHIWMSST
# Chain of Serine/threonine-protein kinase Nek7 (Homo sapiens) (Q8TDX7 whole entry, looked up): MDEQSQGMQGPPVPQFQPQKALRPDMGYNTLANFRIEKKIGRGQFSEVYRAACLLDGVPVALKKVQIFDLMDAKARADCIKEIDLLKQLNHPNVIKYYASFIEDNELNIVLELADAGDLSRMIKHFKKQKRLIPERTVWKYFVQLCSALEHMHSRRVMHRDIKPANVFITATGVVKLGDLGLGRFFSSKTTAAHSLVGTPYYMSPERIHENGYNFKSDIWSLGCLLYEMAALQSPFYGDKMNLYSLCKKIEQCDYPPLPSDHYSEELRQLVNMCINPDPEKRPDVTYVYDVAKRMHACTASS
# Chain of Serine/threonine-protein kinase Nek4 (Homo sapiens) (P51957 whole entry, looked up): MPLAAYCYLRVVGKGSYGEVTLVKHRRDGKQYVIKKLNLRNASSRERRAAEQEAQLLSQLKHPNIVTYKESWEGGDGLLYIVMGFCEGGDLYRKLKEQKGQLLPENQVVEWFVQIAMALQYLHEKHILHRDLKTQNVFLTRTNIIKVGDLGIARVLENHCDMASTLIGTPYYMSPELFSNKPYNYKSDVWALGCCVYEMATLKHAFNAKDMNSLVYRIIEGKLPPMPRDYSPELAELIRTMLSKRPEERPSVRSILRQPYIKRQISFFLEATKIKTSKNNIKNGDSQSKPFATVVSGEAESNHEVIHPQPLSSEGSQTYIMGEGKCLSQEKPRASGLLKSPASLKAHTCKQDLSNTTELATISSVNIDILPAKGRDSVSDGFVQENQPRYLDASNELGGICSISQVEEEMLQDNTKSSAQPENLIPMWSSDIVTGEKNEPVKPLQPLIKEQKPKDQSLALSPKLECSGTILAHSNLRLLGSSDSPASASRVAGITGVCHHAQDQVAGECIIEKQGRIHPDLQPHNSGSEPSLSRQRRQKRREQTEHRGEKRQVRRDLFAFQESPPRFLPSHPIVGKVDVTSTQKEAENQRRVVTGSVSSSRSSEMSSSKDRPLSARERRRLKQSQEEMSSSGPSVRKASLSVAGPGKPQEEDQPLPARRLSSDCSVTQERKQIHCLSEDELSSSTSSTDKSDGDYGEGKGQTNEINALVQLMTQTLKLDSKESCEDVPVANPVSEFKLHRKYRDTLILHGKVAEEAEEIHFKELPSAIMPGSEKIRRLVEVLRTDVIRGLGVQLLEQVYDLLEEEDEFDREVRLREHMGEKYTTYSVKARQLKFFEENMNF
# Chain of Mitogen-activated protein kinase kinase kinase 8 (P41279 whole entry): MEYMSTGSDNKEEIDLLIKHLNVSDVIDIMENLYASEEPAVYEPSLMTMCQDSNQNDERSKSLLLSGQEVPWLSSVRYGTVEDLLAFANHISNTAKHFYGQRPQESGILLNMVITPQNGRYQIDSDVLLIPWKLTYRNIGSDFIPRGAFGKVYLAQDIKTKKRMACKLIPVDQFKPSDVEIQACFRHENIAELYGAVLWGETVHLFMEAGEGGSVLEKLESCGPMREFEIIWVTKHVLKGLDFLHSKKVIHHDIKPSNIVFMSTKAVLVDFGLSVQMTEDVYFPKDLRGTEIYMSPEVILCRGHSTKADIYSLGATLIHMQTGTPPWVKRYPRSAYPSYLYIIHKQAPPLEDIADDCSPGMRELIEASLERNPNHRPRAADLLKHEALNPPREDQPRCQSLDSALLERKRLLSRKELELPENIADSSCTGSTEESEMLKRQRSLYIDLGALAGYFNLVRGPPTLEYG
inhibition [11] [%],inhibition [13] [%],inhibition [14] [%],inhibition [16] [%],inhibition [17] [%],inhibition [18] [%],inhibition [19] [%],Structure (SMILES),inhibition [12] [%],inhibition [15] [%],also measured
,,,,,,,NC(=O)c1ccc(-c2ccc(Oc3cncc4sc(-c5nn[nH]n5)cc34)cc2)cc1,,,inhibition [1]: 89.9%; IC50 [2]: 150 nM
,,,,,,,CCCS(=O)(=O)Nc1ccc(F)c(C(=O)c2c[nH]c3ncc(-c4ccc(Cl)cc4)cc23)c1F [VEMURAFENIB],,,% control [3]: 69%; Kd [4]: 5000 nM; % control [5]: 100%; % control [6]: 91%; % control [7]: 49%; % control [8]: 66%; % control [9]: 71%; % control [10]: 59%
32,7,29,3,4,81,2,COc1cc(Nc2ncc3c(C)nc(-c4cccc(Oc5ccccc5)c4)n3n2)cc(OC)c1OC,3,-1,
,,,,,,,N#CCNC(=O)c1ccc(-c2ccnc(Nc3ccc(N4CCOCC4)cc3)n2)cc1 [MOMELOTINIB],,,Kd [20]: < 100 nM; Kd [21]: < 100 nM; IC50 [22]: 100 nM; Kd [23]: < 100 nM
38,8,4,5,6,9,10,COc1cc(Nc2ncc3c(C)nc(-c4cccc(C(F)(F)F)c4)n3n2)cc(OC)c1OC,55,86,
,,,,,,,COCCOc1cc2c(-n3nc(-c4ccccn4)nc3N)ncnc2cc1OC,,,inhibition [24]: 78%
